# According to patent publication US7332480B2, “Compositions for the regulation of cytokine activity” (Yeda Research and Development Co. Ltd., priority 1992, dated 2008):
# How the values were obtained:
# [1] = system: mortality after irradiation; test: Radioprotective effects in gamma-irradiated mice; assay type: in vivo, BALB/c mice; settings: 750 rads; three administrations; 300 ng H-9392, 1 μg glucosamine
# Experimental: Groups of female BALB/c mice, 8 weeks old, 5-10 mice per group, were injected subcutaneously with either saline (0.1 ml, control), H-9392 (30 ng/mouse), or glucosamine (10,000 ng/mouse) 1 day before irradiation, and weekly thereafter until termination of the experiment on day 30. All the mice were irradiated to a dose of 700 rads using a ^60Co gamma radiation source.
# The mortality within the different groups of mice was then scored over a 30 day period. […] The group of mice which had been injected with glucosamine also fared better than the control group, showing a 20% mortality rate in the same period.
# In a separate experiment, groups of BALB/c mice (5 mice to a group) were likewise exposed to 750 rads of gamma-rays, except that these groups of mice were treated with test substances (saline at 0.1 ml per mouse; H-9392 at 0.3, 3, 30 and 300 ng/mouse; and glucosamine at 1, 10 and 100 μg/mouse) on the day before irradiation, on the sixth day after irradiation, and once again on the thirteenth day after irradiation only. All treatment ceased after the third and last administration.
# [2] = system: experimental DTH reaction in mice; test: In vivo bioassay of inhibition of experimental DTH reactivity (oxazolone, ear swelling); set-up: key to effect on DTH (printed in the Dose column): “N.E.” indicates that no effect was observed at the tested dosage range of 0.000004-4 μg/gm mouse; settings: for DTH / effective dose range for inhibition ≧50% of control: CD1 mice; for effective dose range for inhibition ≧50% of control: Table XXIIIC footnotes, DTH; for effect on DTH (printed in the Dose column): tested dosage range of 0.000004-4 μg/gm mouse s.c.
# Experimental: Groups of inbred BALB/c (Jackson Laboratories, Bar Harbor, Me.) or of outbred CD1 (Weizmann Institute Animal Breeding Center, Rehovot, Israel) mice are sensitized on the shaved abdominal skin with 100 μl of 2% oxazolone (OX) in acetone/olive oil (4/1, v/v) applied topically. DTH sensitivity is elicited 5 days later as follows: mice are challenged with 20 μl of 0.5% OX (10 μl administered topically to each side of the ear) in acetone/olive oil. A constant area of the ear is measured immediately before challenge and 24 and 48 h later with a Mitutoyo engineer's micrometer. The individual measuring ear swelling is blinded to the identity of the groups of mice. The increment (Δ) of ear swelling is expressed as the mean in units of 10^−2 mm or 10^−4 inch (+SE) depending on the micrometer that is used. Percent inhibition is calculated as follows: […]
# Mice are treated with LMWH again Example 5.1, injected the day before primary sensitization to OX. On the fifth day after sensitization to OX, the 10 mice are challenged to induce a DTH reaction, as described above.
# The positive control is the DTH reaction elicited in immunized mice in the absence of treatment with LMWH. The negative control is the background swelling produced by the antigen in naive (non-immunized) mice. […]
# BALB/c mice (at least 5 mice per group) were sensitized on the shaved abdomen with 3% 4-ethoxymethylene-2-phenyl oxazolone (OX; BDH-Chemicals, GB) in acetone/olive oil applied topically. DTH sensitivity was elicited 5 days later as follows. Mice were challenged with 0.5% OX in acetone/olive oil. The ear was measured immediately before challenge and 24 h later with Mitutoyo engineer's micrometer (Japan). The individual measuring the swelling of the ear was blinded to the identity of the groups of mice. To interfere with DTH response, the low molecular weight immuno-regulatory fractions, diluted in PBS, were administrated subcutaneously into the back of the treated mice at the indicated time schedules and concentrations. Treated mice were inspected during and after (>2 months) the treatment and no major side-effects were observed clinically.
# In particular, CD1 mice (available from the Weizmann Institute Animal Breeding Center, Rehovot, Israel), 4-12 mice per group were treated as described in Section 5.2 or 6.8.
# IDDM of NOD mice = test: Insulin dependent diabetes mellitus (IDDM) of NOD mice; assay type: in vivo; settings: H-9392 30 ng, glucosamine 10,000 ng; all the control mice had died (FIG. 41A)
# [3] = system: secretion of active TNF-α by activated human CD4+ T cells; test: Bioassay of TNF-α activity using human CD4+ T cells derived from PBLs (human PBL bioassay); assay type: cell-based; settings: for Bioassay of TNF Activity: Table XXIII, conc range of 1 μg/ml-0.01 pg/ml, inconsistent = same result not obtained for all three bioassays; for “R” value: no effect, zero assigned
# From the text: Non adherent cells were eluted and washed.
# Nophar, Y. et al. J. Immunol. (1988) 140 (10):3456-3460.
# adjuvant arthritis = test: Adjuvant arthritis (AA) in rats; assay type: in vivo, Lewis rats
# [4] = system: LPS-induced inflammation of the cornea; test: LPS-induced inflammation of the rat cornea; assay type: in vivo, Lewis rats
# Experimental: LPS-induced inflammation of the cornea is TNF dependent, as shown by the work of Vanderhagen, C. and co-workers in the Netherlands, “Kinetics of Intraocular TNF and IL-6 in Endotoxin-Induced Uveitis in the Rat,” submitted for publication. Using a 30-gauge needle, LPS (5 ng) was injected into the cornea of Lewis rats. After one day, separate groups of rats, 2 to a group (or 4 eyes to a group) were then injected subcutaneously with phosphate-buffered saline (0.05 ml) or H-1020 (at a dose of either 50 ng/rat or 200 ng/rat). The effects, if any, were scored as follows:
# in which the sum of the points is used as the total score.
# [5] = Table XXIIIA, no effect, zero assigned
compound,measurement,setting,value
"N[C@@H](C=O)[C@@H](O)[C@H](O)[C@H](O)CO [GlcN, 2-amino-2-deoxy-D-glucose, reference compound]",activity in suppressing mortality after irradiation,[1],moderate activity
same,DTH,"[2]; Table XXIIIC, 0.000012 μg/gm s.c., control 19.7 ± 1.2",5 ± 0.7 10^−2 mm
same,DTH,"[2]; Table XXIIIC, 0.4 μg/gm s.c., control 19.7 ± 1.2",2.3 ± 0.9 10^−2 mm
same,mice died by age 5 months,IDDM of NOD mice,about half
"O=S(=O)(O)N[C@H]1C(O)O[C@H](CO)[C@@H](O)[C@@H]1OS(=O)(=O)O (stereo partly drawn) [GlcN-2, 3S, D-Glucosamine-2,3-disulfate, reference compound]",effective dose range for inhibition ≧50% of control,[2]; s.c.,narrow
"CC(=O)N[C@H]1C(O)O[C@H](CO)[C@@H](O[C@@H]2OC(C(=O)O)=C[C@H](O)[C@H]2OS(=O)(=O)O)[C@@H]1O (stereo partly drawn) [H-8767, 2-O-sulfate-4-deoxy-4-en-iduronic acid-(α-1,4)-2-deoxy-2-N-acetylglucosamine]",“R” value,[2]; [5],0 % × (μg/gm)^−1
same,effect on DTH (printed in the Dose column),[2]; Table XXIIIA,N.E.
same,Bioassay of TNF Activity,[3],Inconsistent
"O=S(=O)(O)N[C@H]1C(O)O[C@H](CO)[C@@H](O)[C@@H]1O (stereo partly drawn) [GlcN-2S, D-Glucosamine-2-N-sulfate, reference compound]",“R” value,"[2]; Table XXIIIC, no effect, zero assigned",0 % × (μg/gm)^−1
same,effect on DTH (printed in the Dose column),[2]; Table XXIIIC,N.E.
"N[C@H]1C(O)O[C@H](COS(=O)(=O)O)[C@@H](O[C@@H]2OC(C(=O)O)=C[C@H](O)[C@H]2O)[C@@H]1O (stereo partly drawn) [H-9017, 4-Deoxy-4-en-iduronic acid-(α-1,4)-2-deoxy-6-O-sulfateglucosamine]",“R” value,[2]; [5],0 % × (μg/gm)^−1
same,effect on DTH (printed in the Dose column),[2]; Table XXIIIA,N.E.
same,Bioassay of TNF Activity,[3],No effect
same,“R” value,[3],0 % × (pg/ml)^−1
"C[C@@H]1C[C@H]2[C@@H]3CCC4=CC(=O)C=C[C@]4(C)[C@@]3(F)[C@@H](O)C[C@]2(C)[C@@]1(O)C(=O)COP(=O)(O)O [dexamethasone phosphate, reference compound]",course of AA after treatment was ended,"adjuvant arthritis; treatment from day 12, dexamethasone phosphate daily or weekly, disaccharide weekly",suffered a relapse
same,severity of the AA score at 30 days post-induction,"adjuvant arthritis; weekly s.c. from day 12, dexamethasone phosphate 100 μg or disaccharide 120 ng per rat (FIG. 38G)",only a moderate reduction in the severity of the AA score
"O=C(O)C1=C[C@H](O)[C@@H](O)[C@H](O[C@H]2[C@H](O)[C@@H](NS(=O)(=O)O)C(O)O[C@@H]2CO)O1 (stereo partly drawn) [H-1145, 4-deoxy-4-en-iduronic acid-(α-1,4)-2-deoxy-2-N-sulfateglucosamine]",“R” value,[2]; [5],0 % × (μg/gm)^−1
same,effect on DTH (printed in the Dose column),[2]; Table XXIIIA,N.E.
"N[C@H]1C(O)O[C@H](CO)[C@H](O)[C@@H]1O (stereo partly drawn) [GalN, D-Galactosamine, reference compound]",effect on AA,"adjuvant arthritis; different dosages, s.c. weekly (FIG. 38C)",inhibitory effects but to a much lesser degree
same,DTH,"[2]; Table XXIIIC, 0.00004 μg/gm s.c., control 18.9 ± 0.7",8.9 ± 0.6 10^−2 mm
same,DTH,"[2]; Table XXIIIC, 0.12 μg/gm s.c., control 18.9 ± 0.7",6.5 ± 0.7 10^−2 mm
"N[C@H]1C(O)O[C@H](CO)[C@@H](O[C@@H]2OC(C(=O)O)=C[C@H](O)[C@H]2OS(=O)(=O)O)[C@@H]1O (stereo partly drawn) [H-9142, 2-O-sulfate-4-deoxy-4-en-iduronic acid-(α-1,4)-2-deoxyglucosamine]",“R” value,[2]; [5],0 % × (μg/gm)^−1
same,effect on DTH (printed in the Dose column),[2]; Table XXIIIA,N.E.
same,Bioassay of TNF Activity,[3],Inconsistent
"CC(=O)N[C@H]1C(O)O[C@H](CO)[C@@H](O)[C@@H]1O (stereo partly shown) [NAc-GlcN, N-Acetylglucosamine, reference compound]",effect on DTH (printed in the Dose column),[2]; Table XXIIIC,N.E.
"CC(=O)N[C@H]1C(O)O[C@H](COS(=O)(=O)O)[C@@H](O[C@@H]2OC(C(=O)O)=C[C@H](O)[C@H]2OS(=O)(=O)O)[C@@H]1O (stereo partly drawn) [H-9517, 2-O-sulfate-4-deoxy-4-en-iduronic acid-(α-1,4)-2-deoxy-2-N-acetyl-6-O-sulfateglucosamine]",Bioassay of TNF Activity,[3],Inconsistent^c
"NC1C(O)OC(COS(=O)(=O)O)C(OC2OC(C(=O)O)=CC(O)C2OS(=O)(=O)O)C1O (stereo not drawn) [H-8892, 2-O-sulfate-4-deoxy-4-en-iduronic acid-(α-1,4)-2-deoxy-6-O-sulfateglucosamine]",“R” value,[2]; [5],0 % × (μg/gm)^−1
same,effect on DTH (printed in the Dose column),[2]; Table XXIIIA,N.E.
same,Bioassay of TNF Activity,[3],No effect
same,“R” value,[3],0 % × (pg/ml)^−1
"O=C(O)C1=C[C@H](O)[C@@H](O)[C@H](O[C@H]2[C@H](O)[C@@H](NS(=O)(=O)O)C(O)O[C@@H]2COS(=O)(=O)O)O1 (stereo partly drawn) [H-1020, 4-deoxy-4-en-iduronic acid-(α-1,4)-2-deoxy-2-N-sulfate-6-O-sulfateglucosamine]",effect on local LPS-induced inflammation relative to control,[4]; 50 ng/rat s.c. (FIG. 39),effective to suppress
same,effect on local LPS-induced inflammation relative to control,[4]; 200 ng/rat s.c. (FIG. 39),failed to provide a significant effect
"N[C@H]1C(O)O[C@H](CO)[C@@H](O)[C@@H]1OS(=O)(=O)O (stereo partly drawn) [GlcN-3S, D-Glucosamine-3-sulfate, reference compound]",effect on DTH (printed in the Dose column),[2]; Table XXIIIC,N.E.
"O=S(=O)(O)N[C@H]1C(O)O[C@H](COS(=O)(=O)O)[C@@H](O)[C@@H]1O (stereo partly drawn) [GlcN-2, 6S, D-Glucosamine-2,6-disulfate, reference compound]",effective dose range for inhibition ≧50% of control,[2]; s.c.,narrow
"N[C@H]1C(O)O[C@H](COS(=O)(=O)O)[C@@H](O)[C@@H]1O (stereo partly drawn) [GlcN-6S, D-Glucosamine-6-sulfate, reference compound]",effect on DTH (printed in the Dose column),[2]; Table XXIIIC,N.E.
"CC(=O)NC1C(O)OC(COS(=O)(=O)O)C(OC2OC(C(=O)O)=CC(O)C2O)C1O (stereo not drawn) [H-8642, 4-deoxy-4-en-iduronic acid-(α-1,4)-2-deoxy-2-N-acetyl-6-O-sulfateglucosamine]",“R” value,[2]; [5],0 % × (μg/gm)^−1
same,effect on DTH (printed in the Dose column),[2]; Table XXIIIA,N.E.
same,Bioassay of TNF Activity,[3],Inconsistent
"O=C(O)C1=C[C@H](O)[C@@H](OS(=O)(=O)O)[C@H](O[C@H]2[C@H](O)[C@@H](NS(=O)(=O)O)C(O)O[C@@H]2COS(=O)(=O)O)O1 (stereo partly drawn) [H-9267, 2-O-sulfate-4-deoxy-4-en-iduronic acid-(α-1,4)-2-deoxy-2-N-sulfate-6-O-sulfateglucosamine]",“R” value,"[2]; Table XXIIIA, inhibition of DTH, s.c.",1.60 × 10^5 % × (μg/gm)^−1
same,Bioassay of TNF Activity,[3],Inconsistent
